Patent US20250318524A1, “ANTIMICROBIAL COATING COMPOSITION AND METHOD OF USE THEREOF” (priority 2024, published 2025)

Assay: Selection of antimicrobial agents: solubility in aqueous solution, stability, compatibility with the coating composition
Conditions: 20 wt. % in aqueous solution, during storage

N=C(NCCCCCCNC(=N)NC(=N)Nc1ccc(Cl)cc1)NC(=N)Nc1ccc(Cl)cc1.O=C(O)[C@H](O)[C@@H](O)[C@H](O)[C@H](O)CO.O=C(O)[C@H](O)[C@@H](O)[C@H](O)[C@H](O)CO [Chlorhexidine gluconate, chlorhexidine gluconate]
colour of solution over time: turned dark brown
